Experimental data from ChEMBL document CHEMBL1909046, “DrugMatrix in vitro pharmacology data”.

Legend:
[1] = molecular target: T1, Cholecystokinin receptor type A (Homo sapiens, UniProt P32238); format: cell membranes, Membrane; settings: 1321-n1; further: in other assays of this panel Not Active means under 50% inhibition at 10 µM
T1 sequence (P32238 whole entry): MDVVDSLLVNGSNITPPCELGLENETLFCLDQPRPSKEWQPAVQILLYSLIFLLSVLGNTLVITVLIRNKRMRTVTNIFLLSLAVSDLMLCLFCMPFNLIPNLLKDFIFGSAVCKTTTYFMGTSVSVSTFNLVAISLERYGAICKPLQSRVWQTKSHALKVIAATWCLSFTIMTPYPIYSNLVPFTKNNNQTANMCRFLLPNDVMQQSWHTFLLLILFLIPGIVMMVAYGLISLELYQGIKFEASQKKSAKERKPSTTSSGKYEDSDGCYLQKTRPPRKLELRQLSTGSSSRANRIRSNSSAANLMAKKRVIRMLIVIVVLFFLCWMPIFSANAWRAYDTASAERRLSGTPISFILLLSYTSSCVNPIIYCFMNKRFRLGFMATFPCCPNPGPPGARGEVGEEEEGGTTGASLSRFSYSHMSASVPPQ

[2] = DRUGMATRIX: Interleukin IL-1 radioligand binding (ligand: [125I] interleukin 1beta); format: cell membranes, Membrane; settings: nih3t3; Not Active = under 50% inhibition at 10 µM
[3] = molecular target: T2, C-X-C chemokine receptor type 2 (Homo sapiens, UniProt P25025); format: cell membranes, Membrane; settings: cho-k1; further: in other assays of this panel Not Active means under 50% inhibition at 10 µM
T2 sequence (P25025 whole entry): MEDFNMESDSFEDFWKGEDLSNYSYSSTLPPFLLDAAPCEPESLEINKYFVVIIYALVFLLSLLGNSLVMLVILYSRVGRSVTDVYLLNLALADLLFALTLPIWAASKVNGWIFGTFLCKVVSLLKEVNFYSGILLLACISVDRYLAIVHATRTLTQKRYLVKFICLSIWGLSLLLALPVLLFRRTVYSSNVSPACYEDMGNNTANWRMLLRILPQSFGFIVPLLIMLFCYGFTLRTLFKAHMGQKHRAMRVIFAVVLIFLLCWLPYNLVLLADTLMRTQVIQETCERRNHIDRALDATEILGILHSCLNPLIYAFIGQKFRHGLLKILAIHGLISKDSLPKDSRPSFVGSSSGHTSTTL

[4] = molecular target: Prostaglandin G/H synthase 1 (Homo sapiens, UniProt P23219); assay: biochemical; format: tissue-based, Platelet; settings: platelet;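 further: inhibition of COX-1 enzyme activity, with arachidonic acid supplied as substrate; in other assays of this panel Not Active means under 50% inhibition at 10 µM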
D(4) dopamine receptor = molecular target: T3, D(4) dopamine receptor (Homo sapiens, UniProt P21917); assay: DRUGMATRIX: Dopamine D4.2 radioligand binding (ligand: [3H] Spiperone); format: cell membranes, CHO-K1, Membrane; settings: cho-k1; Not Active = under 50% inhibition at 10 µM
T3 sequence (P21917 whole entry): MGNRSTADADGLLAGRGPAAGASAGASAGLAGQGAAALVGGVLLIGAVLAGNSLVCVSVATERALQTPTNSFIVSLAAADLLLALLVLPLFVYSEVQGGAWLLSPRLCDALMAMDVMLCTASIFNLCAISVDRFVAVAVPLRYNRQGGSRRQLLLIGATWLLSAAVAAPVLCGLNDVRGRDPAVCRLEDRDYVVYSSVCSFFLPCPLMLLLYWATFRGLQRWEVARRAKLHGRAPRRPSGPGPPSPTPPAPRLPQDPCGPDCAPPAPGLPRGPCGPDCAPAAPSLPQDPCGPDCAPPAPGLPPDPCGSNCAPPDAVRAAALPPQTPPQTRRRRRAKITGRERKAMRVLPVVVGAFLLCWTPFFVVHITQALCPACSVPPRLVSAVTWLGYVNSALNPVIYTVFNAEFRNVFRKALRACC

[5] = molecular target: Sigma non-opioid intracellular receptor 1 (Homo sapiens, UniProt Q99720); assay: DRUGMATRIX: Sigma1 radioligand binding (ligand: [3H] Haloperidol); format: cell membranes, Jurkat, Membrane; settings: Not Active = under 50% inhibition at 10 µM; for Ki: read-out: Ki
Acetylcholinesterase = Acetylcholinesterase (Homo sapiens, UniProt P22303); assay: DRUGMATRIX: Acetylcholinesterase enzyme inhibition (substrate: acetylthiocholine); format: cell-based, HEK293; settings: hek293; Not Active = under 50% inhibition at 10 µM
Estrogen receptor beta = Estrogen receptor beta (Homo sapiens, UniProt Q92731); settings: sf9; further: in other assays of this panel Not Active means under 50% inhibition at 10 µM
Chain of Estrogen receptor beta (Q92731 whole entry): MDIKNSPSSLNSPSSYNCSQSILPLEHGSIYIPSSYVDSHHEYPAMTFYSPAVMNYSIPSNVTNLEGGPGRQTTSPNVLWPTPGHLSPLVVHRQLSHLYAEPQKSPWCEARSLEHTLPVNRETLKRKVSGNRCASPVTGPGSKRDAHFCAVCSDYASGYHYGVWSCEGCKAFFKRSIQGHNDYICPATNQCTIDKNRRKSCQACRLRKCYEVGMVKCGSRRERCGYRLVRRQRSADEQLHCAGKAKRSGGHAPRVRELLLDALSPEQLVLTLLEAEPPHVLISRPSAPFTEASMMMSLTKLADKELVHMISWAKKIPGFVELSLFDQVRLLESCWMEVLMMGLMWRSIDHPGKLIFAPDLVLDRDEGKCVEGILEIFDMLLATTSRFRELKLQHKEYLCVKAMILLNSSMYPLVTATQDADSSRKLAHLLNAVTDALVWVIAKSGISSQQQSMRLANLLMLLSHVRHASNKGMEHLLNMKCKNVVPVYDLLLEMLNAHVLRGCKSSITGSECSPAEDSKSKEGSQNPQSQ

Chain of Prostaglandin G/H synthase 1 (P23219 whole entry): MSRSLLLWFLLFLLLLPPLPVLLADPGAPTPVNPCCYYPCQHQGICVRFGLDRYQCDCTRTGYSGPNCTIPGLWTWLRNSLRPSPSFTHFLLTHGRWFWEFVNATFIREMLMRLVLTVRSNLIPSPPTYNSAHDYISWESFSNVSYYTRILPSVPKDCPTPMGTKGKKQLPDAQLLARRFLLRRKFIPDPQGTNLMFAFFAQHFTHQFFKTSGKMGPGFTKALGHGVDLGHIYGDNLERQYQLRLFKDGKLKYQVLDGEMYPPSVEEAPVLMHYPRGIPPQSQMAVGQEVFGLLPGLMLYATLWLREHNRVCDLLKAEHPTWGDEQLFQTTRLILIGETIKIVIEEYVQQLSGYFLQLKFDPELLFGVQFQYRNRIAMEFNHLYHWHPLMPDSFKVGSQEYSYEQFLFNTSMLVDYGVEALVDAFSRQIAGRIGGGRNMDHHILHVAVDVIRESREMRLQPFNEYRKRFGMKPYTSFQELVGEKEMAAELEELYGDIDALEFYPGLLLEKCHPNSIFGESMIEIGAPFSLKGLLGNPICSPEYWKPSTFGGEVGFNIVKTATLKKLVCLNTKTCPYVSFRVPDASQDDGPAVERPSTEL
Chain of Sigma non-opioid intracellular receptor 1 (Q99720 whole entry): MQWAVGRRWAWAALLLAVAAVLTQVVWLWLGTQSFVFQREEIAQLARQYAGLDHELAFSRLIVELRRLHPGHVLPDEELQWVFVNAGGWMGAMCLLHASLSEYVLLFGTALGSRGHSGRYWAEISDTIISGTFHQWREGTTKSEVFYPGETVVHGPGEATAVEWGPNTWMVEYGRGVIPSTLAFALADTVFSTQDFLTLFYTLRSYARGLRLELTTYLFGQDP
Chain of Acetylcholinesterase (P22303 whole entry): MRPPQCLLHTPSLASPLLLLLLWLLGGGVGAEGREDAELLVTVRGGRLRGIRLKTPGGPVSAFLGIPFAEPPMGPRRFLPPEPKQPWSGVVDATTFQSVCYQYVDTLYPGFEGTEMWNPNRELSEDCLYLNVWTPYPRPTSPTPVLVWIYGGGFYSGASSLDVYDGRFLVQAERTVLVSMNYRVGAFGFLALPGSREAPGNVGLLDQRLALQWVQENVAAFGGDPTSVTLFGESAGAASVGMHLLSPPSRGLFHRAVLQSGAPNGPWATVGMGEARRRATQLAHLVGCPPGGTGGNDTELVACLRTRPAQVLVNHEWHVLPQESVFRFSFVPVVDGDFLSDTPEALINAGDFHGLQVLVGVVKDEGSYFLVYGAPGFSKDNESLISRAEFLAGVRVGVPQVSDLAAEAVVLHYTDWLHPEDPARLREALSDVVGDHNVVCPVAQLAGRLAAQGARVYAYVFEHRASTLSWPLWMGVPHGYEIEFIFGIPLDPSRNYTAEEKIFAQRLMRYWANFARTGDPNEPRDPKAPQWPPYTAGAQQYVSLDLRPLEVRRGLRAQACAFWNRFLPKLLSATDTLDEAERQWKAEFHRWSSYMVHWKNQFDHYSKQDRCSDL

Structure (SMILES)	IC50 [1]	IC50 [2]	Ki [2]	IC50 [3]	IC50 [4]	IC50 (D(4) dopamine receptor)	IC50 ([5]; read-out: IC50) [µM]	Ki [5] [µM]	IC50 (Acetylcholinesterase)	IC50 ([5]; jurkat)	IC50 (Estrogen receptor beta)
COc1ccc2cc3[n+](cc2c1OC)CCc1cc2c(cc1-3)OCO2.[Cl-] [BERBERINE CHLORIDE]	Not Active	Not Active	Not Active	Not Active	Not Active	Not Active	1.29	0.542	–	–	–
CC(C)=CCC/C(C)=C/CO [GERANIOL]	Not Active	Not Active	Not Active	Not Active	Not Active	Not Active	–	–	Not Active	Not Active	–
NNc1nncc2ccccc12 [HYDRALAZINE]	Not Active	Not Active	Not Active	Not Active	Not Active	Not Active	–	–	Not Active	Not Active	–
CC(C)(C)NC(=O)[C@H]1CC[C@H]2[C@@H]3CC[C@H]4NC(=O)C=C[C@]4(C)[C@H]3CC[C@]12C [FINASTERIDE]	Not Active	Not Active	Not Active	Not Active	Not Active	Not Active	–	–	Not Active	Not Active	–
CC1(C)S[C@@H]2[C@H](NC(=O)[C@H](N)c3ccccc3)C(=O)N2[C@H]1C(=O)O [AMPICILLIN]	Not Active	Not Active	Not Active	Not Active	Not Active	Not Active	–	–	Not Active	Not Active	–
COC(=O)Nc1nc2ccc([S+]([O-])c3ccccc3)cc2[nH]1 (stereo not given) [OXFENDAZOLE]	Not Active	Not Active	Not Active	Not Active	Not Active	Not Active	–	–	Not Active	Not Active	–
Oc1c(Cl)cc(Cl)c(Cl)c1Cc1c(O)c(Cl)cc(Cl)c1Cl [HEXACHLOROPHENE]	Not Active	Not Active	Not Active	Not Active	Not Active	Not Active	–	–	–	Not Active	Not Active
COc1ccc(C(=O)N2CCCC2=O)cc1	Not Active	Not Active	Not Active	Not Active	Not Active	Not Active	–	–	Not Active	Not Active	–
C[C@@H]1C[C@H]2[C@@H]3CCC4=CC(=O)C=C[C@]4(C)[C@@]3(F)[C@@H](O)C[C@]2(C)[C@@]1(O)C(=O)CO [DEXAMETHASONE]	Not Active	Not Active	Not Active	Not Active	Not Active	Not Active	–	–	Not Active	Not Active	–
CCC1(C)CC(=O)NC1=O (stereo not given) [ETHOSUXIMIDE]	Not Active	Not Active	Not Active	Not Active	Not Active	Not Active	–	–	Not Active	Not Active	–
OC(CCCN1CCCCC1)(c1ccccc1)c1ccccc1 [DIPHENIDOL]	Not Active	Not Active	Not Active	Not Active	Not Active	Not Active	0.256	0.108	Not Active	–	–
CN(C)CC[C@@H](c1ccc(Cl)cc1)c1ccccn1 [DEXCHLORPHENIRAMINE]	Not Active	Not Active	Not Active	Not Active	Not Active	Not Active	1.66	0.697	Not Active	–	–
CC[C@H](C)[C@H]1O[C@]2(C=C[C@@H]1C)C[C@@H]1C[C@@H](C/C=C(\C)[C@@H](O[C@H]3C[C@H](OC)[C@@H](O[C@H]4C[C@H](OC)[C@@H](O)[C@H](C)O4)[C@H](C)O3)[C@@H](C)/C=C/C=C3\CO[C@@H]4[C@H](O)C(C)=C[C@@H](C(=O)O1)[C@]34O)O2.CO[C@H]1C[C@H](O[C@H]2[C@H](C)O[C@@H](O[C@@H]3/C(C)=C/C[C@@H]4C[C@@H](C[C@]5(C=C[C@H](C)[C@@H](C(C)C)O5)O4)OC(=O)[C@@H]4C=C(C)[C@@H](O)[C@H]5OC/C(=C\C=C\[C@@H]3C)[C@]54O)C[C@@H]2OC)O[C@@H](C)[C@@H]1O [ABAMECTIN]	Not Active	Not Active	Not Active	Not Active	Not Active	Not Active	–	–	Not Active	Not Active	–
Nc1ccn([C@@H]2O[C@H](CO)[C@@H](O)[C@@H]2O)c(=O)n1 [CYTARABINE]	Not Active	Not Active	Not Active	Not Active	Not Active	Not Active	–	–	Not Active	Not Active	–
COc1cc(N)c(Cl)cc1C(=O)NC1CCN(CCCOc2ccc(F)cc2)CC1OC (stereo not given) [CISAPRIDE]	Not Active	Not Active	Not Active	Not Active	Not Active	Not Active	0.994	0.418	Not Active	–	–
O=C(O)c1cccnc1Nc1cccc(C(F)(F)F)c1 [NIFLUMIC ACID]	Not Active	Not Active	Not Active	Not Active	–	Not Active	–	–	Not Active	Not Active	Not Active
Cn1c(=O)c2[nH]cnc2n(C)c1=O.Cn1c(=O)c2[nH]cnc2n(C)c1=O.NCCN [AMINOPHYLLINE]	Not Active	Not Active	Not Active	Not Active	Not Active	Not Active	–	–	Not Active	Not Active	–
C=CCc1ccc(O)c(OC)c1 [EUGENOL]	Not Active	Not Active	Not Active	Not Active	Not Active	Not Active	–	–	Not Active	Not Active	–
N=C(N)NC(=O)Cc1c(Cl)cccc1Cl [GUANFACINE]	Not Active	Not Active	Not Active	Not Active	Not Active	Not Active	–	–	Not Active	Not Active	–
COc1ccc2c3c1O[C@H]1C[C@@H](O)C=C[C@@]31CCN(C)C2 [GALANTAMINE]	Not Active	Not Active	Not Active	Not Active	Not Active	Not Active	–	–	–	Not Active	Not Active
O=C(O)CCNC(=O)c1ccccc1 [BETAMIPRON]	Not Active	Not Active	Not Active	Not Active	Not Active	Not Active	–	–	Not Active	Not Active	–
O=C/C=C/c1ccccc1	Not Active	Not Active	Not Active	Not Active	Not Active	Not Active	–	–	Not Active	Not Active	–
C#CC1(O)CC[C@H]2[C@@H]3CCC4=CC(=O)CC[C@@H]4[C@H]3CC[C@@]21CC (stereo not given in full) [NORGESTREL]	Not Active	Not Active	Not Active	Not Active	Not Active	Not Active	–	–	Not Active	Not Active	–
CC[C@H]1CN2CCc3cc(OC)c(OC)cc3[C@@H]2C[C@@H]1C[C@H]1NCCc2cc(OC)c(OC)cc21 [EMETINE]	Not Active	Not Active	Not Active	Not Active	Not Active	Not Active	–	–	Not Active	Not Active	–
